Patent US20180298317A1, “DEVICES FOR SIMULATING A FUNCTION OF A TISSUE AND METHODS OF USE AND MANUFACTURING THEREOF” (PRESIDENT AND FELLOWS OF HARVARD COLLEGE, priority 2015, published 2018)

How the values were obtained:
[1] = test system: human brain microvascular endothelial cells with pericytes or astrocytes; assay: Inflammatory stimulation and cytokine release in 3D BBB chip; assay type: cell-based
Protocol: Microfluidic chips and Transwell inserts were cultured for about 72 hours, followed by incubation in CSC complete medium with fetal bovine serum reduced from about 10% to about 2% for about 18 hours. Microfluidics chips were stimulated with TNF-α (Sigma-Aldrich) at about 50 ng/ml in CSC complete medium with about 2% serum for about 6 hrs (about 5 min flow at about 120 μl/min corresponding to about 1 dyne/cm^2, followed by static conditions). Transwells were stimulated on the apical and the basal side. Following thorough rinsing of microfluidic chips under continuous flow (about 120 μl/min, about 1 dyne/cm^2) and batch washes of Transwell plates with CSC complete medium with about 2% serum, conditioned medium from the chips was collected continuously for about 1 hour at about 100 μl/hr (about 0.01 dyne/cm^2) using syringe-driven flow; medium from the apical compartment was collected from Transwells after about 1 hour. The cytokine release profile was assayed with the Bio-Plex Pro Human Cytokine 17-plex Assay (Bio-Rad) in a Bioplex 3D system (Bio-Rad), and the resulting cytokine release profiles were normalized to cell culture area in 3D BBB chips versus Transwells.
(§1) To explore whether we can use the synthetic nature of the 3D BBB chip to analyze the contributions of individual brain vasculature-associated cells to neuroinflammation, the engineered microvessels were cultured in the presence or absence of TNF-α (about 50 ng/ml) that was flowed through the lumen for about 6 hours. Cytokine release profiles produced in the 3D BBB chips containing endothelium with or without either pericytes or astrocytes were then analyzed, and the results were compared to those obtained with similar mono-cultures, as well as co-cultures maintained in commercial Transwell culture plates.

[2] = test system: human brain microvascular endothelial cells with pericytes or astrocytes; assay: Inflammatory stimulation and cytokine release in static Transwell cultures; assay type: cell-based
Protocol: 24-well Transwell inserts (Corning), about 0.4 μm, polyethylene terephthalate membranes, were coated with rat-tail collagen I (Corning) at about 100 μg/ml in phosphate-buffered saline for about 2 hours. The inserts were inverted and pericytes or astrocytes were seeded at about 6.25×10^3 cells per insert. After about 2 hours of incubation, the inserts were placed in 24-well plates and seeded with hBMVEC at about 2.5×10^4 cells per insert. Transendothelial electrical resistance (TEER) values were measured after about 120 hrs of culture using an EndOhm (WPI) and chopstick electrodes. Paracellular diffusion was assayed about 5 minutes after adding dextran 3 kDa-Alexa488 (about 100 μg/ml) to the apical chamber and using a Synergy Neo platereader (BioTek (Winooski, Vt., USA)).
Microfluidic chips and Transwell inserts were cultured for about 72 hours, followed by incubation in CSC complete medium with fetal bovine serum reduced from about 10% to about 2% for about 18 hours. Microfluidics chips were stimulated with TNF-α (Sigma-Aldrich) at about 50 ng/ml in CSC complete medium with about 2% serum for about 6 hrs (about 5 min flow at about 120 μl/min corresponding to about 1 dyne/cm^2, followed by static conditions). Transwells were stimulated on the apical and the basal side. […]
as §1

Q: What does the source list for TNF-α?
A: IL-6 induction ([1]; 3D BBB chip co-cultures of astrocytes-endothelial cells and pericytes-endothelial cells, about 50 ng/ml, about 6 hours): strong IL-6 induction; IL-8 production in response to stimulation ([1]; 3D BBB chip, astrocytes or pericytes in combination with endothelial cells): enhanced IL-8 production; induction of G-CSF secretion ([1]; 3D BBB chip, pericytes with endothelium, about 50 ng/ml, about 6 hours): generally not sensitive to induction; increase in G-CSF secretion in response to TNF-α stimulation ([1]; 3D BBB chips containing astrocytes and endothelial cells, about 50 ng/ml, about 6 hours): ≤ 10 fold; IL-6 induction ([2]; Transwell co-cultures, about 50 ng/ml, about 6 hours): barely detectable; IL-8 production in response to stimulation ([2]; Transwell cultures, astrocytes or pericytes in combination with endothelial cells): enhanced IL-8 production; induction of G-CSF secretion ([2]; endothelial cells and astrocytes co-cultured under static conditions in Transwells, about 50 ng/ml, about 6 hours): could not be detected
